Usually IC50 stands for the concentration that gives 50% inhibition.

SMILES strings stand for the structures.

Experimental findings from US10975080B2, “Compounds and compositions for inhibiting the activity of SHP2” (NOVARTIS AG, priority 2015, dated 2021) are described below.

In one test the target is SHP2 (Homo sapiens (Human), UniProt Q06124). Briefly: SHP2 Allosteric Inhibition Assay. It counts as biochemical. As to conditions: 0.5 nM SHP2 with 0.5 μM peptide IRS1_pY1172(dPEG8)pY1222; surrogate substrate DiFMUP; 25° C.; read-out: IC50. The text has this: SHP2 Allosteric Inhibition Assay
SHP2, sequence (Q06124 whole entry): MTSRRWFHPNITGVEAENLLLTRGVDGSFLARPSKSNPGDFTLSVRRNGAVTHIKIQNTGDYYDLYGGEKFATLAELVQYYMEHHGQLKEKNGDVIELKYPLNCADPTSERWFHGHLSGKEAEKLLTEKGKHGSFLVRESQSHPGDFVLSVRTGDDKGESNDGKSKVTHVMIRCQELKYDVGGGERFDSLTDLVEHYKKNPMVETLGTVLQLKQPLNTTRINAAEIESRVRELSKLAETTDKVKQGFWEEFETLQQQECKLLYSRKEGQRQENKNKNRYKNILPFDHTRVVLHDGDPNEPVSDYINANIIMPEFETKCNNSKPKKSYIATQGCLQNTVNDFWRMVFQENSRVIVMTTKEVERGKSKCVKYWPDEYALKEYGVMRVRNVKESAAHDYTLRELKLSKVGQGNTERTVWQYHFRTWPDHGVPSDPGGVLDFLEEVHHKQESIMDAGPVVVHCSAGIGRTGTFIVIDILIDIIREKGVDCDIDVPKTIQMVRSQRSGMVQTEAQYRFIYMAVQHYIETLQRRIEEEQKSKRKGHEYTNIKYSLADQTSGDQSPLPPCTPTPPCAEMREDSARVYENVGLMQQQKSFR
SHP2 is allosterically activated through binding of bis-tyrosyl-phosphorylated peptides to its Src Homology 2 (SH2) domains. The latter activation step leads to the release of the auto-inhibitory interface of SHP2, which in turn renders the SHP2 protein tyrosine phosphatase (PTP) active and available for substrate recognition and reaction catalysis. The catalytic activity of SHP2 was monitored using the surrogate substrate DiFMUP in a prompt fluorescence assay format.
After 30-60 minutes incubation at 25° C., the surrogate substrate DiFMUP (Invitrogen, cat #D6567) was added to the reaction and incubated at 25° C. for 30 minutes. […] The inhibitor dose response curves were analyzed using normalized IC50 regression curve fitting with control based normalization.
Regarding `Cn1c(N2CCC3(CCC[C@H]3N)CC2)nc2n[nH]c(-c3cccc(Cl)c3Cl)c2c1=O` [Example 2, (R)-6-(1-amino-8-azaspiro[4.5]decan-8-yl)-3-(2,3-dichlorophenyl)-5-methyl-2H-pyrazolo[3,4-d]pyrimidin-4(5H)-one], the IC50 worked out at 25.5 nM.
Still for that read-out and setting: then `CC1(CN)CCN(c2nc3[nH]cc(-c4cccc(Cl)c4Cl)c3c(=O)[nH]2)CC1` [Example 3, 2-(4-(aminomethyl)-4-methylpiperidin-1-yl)-5-(2,3-dichlorophenyl)-3,7-dihydro-4H-pyrrolo[2,3-d]pyrimidin-4-one], with 62 nM; and `Cn1c(N2CCC(C)(CN)CC2)nc2[nH]cc(-c3cccc(Cl)c3Cl)c2c1=O` [Example 5, 2-(4-(aminomethyl)-4-methylpiperidin-1-yl)-5-(2,3-dichlorophenyl)-3-methyl-3H-pyrrolo[2,3-d]pyrimidin-4(7H)-one], with 100 nM.
As to `C[C@@H]1OCC2(CCN(c3nc4[nH]nc(-c5cc(N)nc(Cl)c5Cl)c4c(=O)n3C)CC2)[C@@H]1N` [Example 6, 3-(6-amino-2,3-dichloropyridin-4-yl)-6-((3S,4S)-4-amino-3-methyl-2-oxa-8-azaspiro[4.5]decan-8-yl)-5-methyl-1,5-dihydro-4H-pyrazolo[3,4-d]pyrimidin-4-one], the IC50 was 380 nM.
For the compound `CC(C)Nc1nccc(-c2n[nH]c3nc(N4CCC5(CC4)CO[C@@H](C)[C@H]5N)n(C)c(=O)c23)c1Cl` [Example 7, 6-((3S,4S)-4-amino-3-methyl-2-oxa-8-azaspiro[4.5]decan-8-yl)-3-(3-chloro-2-(isopropylamino)pyridin-4-yl)-5-methyl-1,5-dihydro-4H-pyrazolo[3,4-d]pyrimidin-4-one], the IC50 amounted to 34 nM.
On the same count and under the same terms, then `C[C@@H]1OCC2(CCN(c3nc4[nH]nc(-c5ccnc(N)c5Cl)c4c(=O)n3C)CC2)[C@@H]1N` [Example 8, 3-(2-amino-3-chloropyridin-4-yl)-6-((3S,4S)-4-amino-3-methyl-2-oxa-8-azaspiro[4.5]decan-8-yl)-5-methyl-2,5-dihydro-4H-pyrazolo[3,4-d]pyrimidin-4-one], with 36 nM.
Take `COc1nccc(-c2c[nH]c3nc(N4CCC5(CC4)CO[C@@H](C)[C@H]5N)n(C)c(=O)c23)c1Cl` [Example 9, 2-((3S,4S)-4-amino-3-methyl-2-oxa-8-azaspiro[4.5]decan-8-yl)-5-(3-chloro-2-methoxypyridin-4-yl)-3-methyl-3,7-dihydro-4H-pyrrolo[2,3-d]pyrimidin-4-one]: the IC50 was determined as 26 nM.
For the compound `COc1nccc(-c2c[nH]c3nc(N4CCC5(CC4)CO[C@@H](C)[C@H]5N)[nH]c(=O)c23)c1Cl` [Example 10, 2-((3S,4S)-4-amino-3-methyl-2-oxa-8-azaspiro[4.5]decan-8-yl)-5-(3-chloro-2-methoxypyridin-4-yl)-3H-pyrrolo[2,3-d]pyrimidin-4(7H)-one], the IC50 was found to be 26 nM.
Turning to `CC1(CN)CCN(c2cc3[nH]cc(-c4cccc(Cl)c4Cl)c3c(=O)[nH]2)CC1` [Example 11, 6-(4-(aminomethyl)-4-methylpiperidin-1-yl)-3-(2,3-dichlorophenyl)-1,5-dihydro-4H-pyrrolo[3,2-c]pyridin-4-one], the IC50 turned out to be 86 nM.
On the same count and under the same terms, with `C[C@@H]1OCC2(CCN(c3cnc4c(-c5cccc(Cl)c5Cl)c[nH]c4n3)CC2)[C@@H]1N` [Example 12, (3S,4S)-8-(7-(2,3-dichlorophenyl)-5H-pyrrolo[2,3-b]pyrazin-3-yl)-3-methyl-2-oxa-8-azaspiro[4.5]decan-4-amine] the figure was 39 nM; with `C[C@@H]1OCC2(CCN(c3nc4[nH]nc(Sc5ccnc(N)c5Cl)c4c(=O)n3C)CC2)[C@@H]1N` [Example 13, 3-((2-Amino-3-chloropyridin-4-yl)thio)-6-((3S,4S)-4-amino-3-methyl-2-oxa-8-azaspiro[4.5]decan-8-yl)-5-methyl-1,5-dihydro-4H-pyrazolo[3,4-d]pyrimidin-4-one], 27 nM.

The test is the same for the next values; noted with them: 0.5 nM SHP2 with 0.5 μM peptide IRS1_pY1172(dPEG8)pY1222; surrogate substrate DiFMUP; 25° C.; read-out: SHP2 IC50.
Regarding `Cn1c(N2CCC3(CCC[C@H]3N)CC2)nc2[nH]nc(-c3ccnc(N)c3Cl)c2c1=O` [Example 16, (R)-3-(2-amino-3-chloropyridin-4-yl)-6-(1-amino-8-azaspiro[4.5]decan-8-yl)-5-methyl-1,5-dihydro-4H-pyrazolo[3,4-d]pyrimidin-4-one], the IC50 is 360 nM.
Regarding `Cn1c(N2CCC3(CC[C@@H]3N)CC2)nc2[nH]nc(-c3cccc(Cl)c3Cl)c2c1=O` [Example 17, (S)-6-(1-amino-7-azaspiro[3.5]nonan-7-yl)-3-(2,3-dichlorophenyl)-5-methyl-1,5-dihydro-4H-pyrazolo[3,4-d]pyrimidin-4-one], the IC50 is 44 nM.
On the same count and under the same terms, with `COc1nccc(-c2n[nH]c3nc(N4CCC5(CC4)CO[C@@H](C)[C@H]5N)n(C)c(=O)c23)c1Cl` [Example 18, 6-((3S,4S)-4-amino-3-methyl-2-oxa-8-azaspiro[4.5]decan-8-yl)-3-(3-chloro-2-methoxypyridin-4-yl)-5-methyl-1,5-dihydro-4H-pyrazolo[3,4-d]pyrimidin-4-one] the figure was 43 nM.
Turning to `Cn1c(N2CCC3(CCC[C@H]3N)CC2)nc2[nH]nc(-c3ccccc3)c2c1=O` [Example 19, (R)-6-(1-amino-8-azaspiro[4.5]decan-8-yl)-5-methyl-3-phenyl-1,5-dihydro-4H-pyrazolo[3,4-d]pyrimidin-4-one], the IC50 was found to be 46 nM.
Regarding `Cn1c(N2CCC3(CC2)COC[C@H]3N)nc2[nH]nc(-c3cccc(Cl)c3Cl)c2c1=O` [Example 20, (S)-6-(4-amino-2-oxa-8-azaspiro[4.5]decan-8-yl)-3-(2,3-dichlorophenyl)-5-methyl-1,5-dihydro-4H-pyrazolo[3,4-d]pyrimidin-4-one], the IC50 was determined as 50 nM.
For `Cn1c(N2CCC3(CC2)COC[C@H]3N)nc2[nH]nc(-c3ccnc(Cl)c3Cl)c2c1=O` [Example 21, (S)-6-(4-amino-2-oxa-8-azaspiro[4.5]decan-8-yl)-3-(2,3-dichloropyridin-4-yl)-5-methyl-1,5-dihydro-4H-pyrazolo[3,4-d]pyrimidin-4-one], the IC50 is 54 nM.
Take `Cn1c(N2CCC3(CCC[C@H]3N)CC2)nc2[nH]nc(-c3ccnc(Cl)c3Cl)c2c1=O` [Example 22, (R)-6-(1-amino-8-azaspiro[4.5]decan-8-yl)-3-(2,3-dichloropyridin-4-yl)-5-methyl-1,5-dihydro-4H-pyrazolo[3,4-d]pyrimidin-4-one]: the IC50 is 57 nM.
For `Cn1c(N2CCC3(CC2)COC[C@H]3N)nc2[nH]nc(-c3ccnc(N)c3Cl)c2c1=O` [Example 23, (S)-3-(2-amino-3-chloropyridin-4-yl)-6-(4-amino-2-oxa-8-azaspiro[4.5]decan-8-yl)-5-methyl-1,5-dihydro-4H-pyrazolo[3,4-d]pyrimidin-4-one], the IC50 worked out at 64 nM.
Turning to `Cn1c(N2CCC3(CCCCC3N)CC2)nc2[nH]nc(-c3cccc(Cl)c3Cl)c2c1=O` (stereo not drawn) [Example 24, 6-(7-amino-3-azaspiro[5.5]undecan-3-yl)-3-(2,3-dichlorophenyl)-5-methyl-1,5-dihydro-4H-pyrazolo[3,4-d]pyrimidin-4-one], the IC50 came out at 72 nM.
As for `Cn1c(N2CCC(C)(CN)CC2)nc2[nH]nc(-c3ccnc(Cl)c3Cl)c2c1=O` [Example 25, 6-(4-(aminomethyl)-4-methylpiperidin-1-yl)-3-(2,3-dichloropyridin-4-yl)-5-methyl-1,5-dihydro-4H-pyrazolo[3,4-d]pyrimidin-4-one], the IC50 worked out at 100 nM.
